Data set [1] in a line: Polymorphic stability on storage at room temperature for 24 h (XRPD). The data set is classed as physicochemical. As to conditions: for crystal form after storage at RT for 24 h: room temperature and pressure, 24 h (about a day), open bottle, XRPD. The method, then: The various crystalline forms are also analyzed by Thermal Gravimetric Analysis (TGA). […] In contrast to the above listed forms, TGA profiles of forms L, P, U, α, δ and σ show no significant weight loss. These polymorphic forms of nateglinide are free of bound solvents, i.e., less than about 2% LOD. Table II lists the solvents used for the preparation for nateglinide solvated forms, as well as LOD values based on TGA analysis.
Storage at room temperature and pressure may also cause a transition of one form to another.
X-Ray diffraction was performed on X-Ray powder diffractometer, Scintag variable goniometer, Cu-tube, solid state detector. Sample holder: A round standard aluminum sample holder with round zero background quartz plate.
The sample was put on the sample holder and immediately analyzed as is. Scanning parameters: Range: 2-40 deg 2θ, Continuos Scan, Rate: 3 deg./min.

The nature of data set [2]: Thermal stability / form transformation on heating or drying (XRPD). The data set is classed as physicochemical. As to conditions: for form obtained upon drying / heating: heating under ambient or reduced pressure, generally about 40-80° C.; for form after heating at about 100° C.: 100° C. oil bath, 8.5 h; for form after heating at about 100° C. / form after heating at 120° C.: XRPD; for form after heating at 120° C.: 1 h, atmospheric pressure. As to the method:
The various crystalline forms are related to each other in that drying of one form may result in a transformation to another form, namely nateglinide Forms A, B, D, E, F, G, H, I, J, K, L, M, N, Q, S, T, V, Z, α, β, δ, γ, ε, θ and Ω. The drying is carried out by heating a sample under ambient or reduced pressure. Generally, a preferred temperature is from about 40° C. to about 80° C., more preferably under reduced pressure. […] The term “stable” as used herein refers to a polymorphic change of less than about 5% by weight, more preferably less than about 2%, particularly for Form δ.
Sample of nateglinide form U (˜1 g) was introduced into a 6-gram vial and heated over 8.5 h in a 100° C. oil bath. The vial were extracted from the bath.
Sample of nateglinide form U (˜0.5 g) was heated to 120° C. for 1 h in an atmospheric pressure.
Sample of nateglinide form δ (˜0.5 g) was heated to 120° C. for 1 h in an atmospheric pressure.

For data set [3] the following is noted: demonstrated by DSC; cited from earlier work. (Differential scanning calorimetry records heat flow against a reference as temperature is scanned.)
Data set [4] can be described thus: Absorption of solvent vapors by nateglinide Form H. Conditions: for Δ (overweight): room temperature, 4 d. The data set is classed as physicochemical. As to the method:
Nateglinide (3.50 g) was added to a polypropylene can and weighed. The can was introduced into a bigger polypropylene container containing a solvent, and stored at room temperature. The can was removed from the container and weighed (Wfinal). The can content was divided into 2 portions. One portion was dried at a temperature of 55° C. and a pressure of 20-30 mmHg to constant weight (±0.01 g).

The nature of data set [5]: Stability at about 40° C. and about 75% relative humidity. The data set is classed as physicochemical. As to conditions: about 40° C., relative humidity about 75%. The method, then: Crystalline Form δ is stable at a temperature of about 40° C. and a relative humidity of about 75% for at least about 3 months.
For data set [6] the following is noted: cited from earlier work.

The values below come from patent publication US20050075400A1, “Polymorphic forms of nateglinide” (priority 2002, published 2005).

Each structure is given as a SMILES string. Like-named read-outs stand apart in the source and are kept apart here.

`CC(C)[C@H]1CC[C@H](C(=O)N[C@H](Cc2ccccc2)C(=O)O)CC1` [Form A, nateglinide]: the “crystal form after storage at RT for 24 h” value (from here on “crystal form after storage”) is “partially converts to Form B” in data set [1] and “conversion to Form B” in data set [1] (listed as A). Also, the “form obtained upon drying / heating” value in data set [2] is “convert to Form B”; in data set [2] (listed as Form a) it was “Form S”.
Consider `CC(C)[C@H]1CC[C@H](C(=O)N[C@H](Cc2ccccc2)C(=O)O)CC1` [Form B, nateglinide], for which the stability during grinding result in data set [3] was “unstable and susceptible to change during grinding”. Further, the “thermal stability (conversion to another form upon heating)” value (“thermal stability” for short) in data set [2] is given as “thermally stable”.
Consider `CC(C)[C@H]1CC[C@H](C(=O)N[C@H](Cc2ccccc2)C(=O)O)CC1` [Form C, nateglinide], for which the “form obtained upon drying / heating” value in data set [2] is “convert to Form B”.
Same read-out and setting: under `CC(C)[C@H]1CC[C@H](C(=O)N[C@H](Cc2ccccc2)C(=O)O)CC1` [Form E, nateglinide] stands “convert to Form B”; under `CC(C)[C@H]1CC[C@H](C(=O)N[C@H](Cc2ccccc2)C(=O)O)CC1` [Form F, nateglinide], “convert to a mixture of Form B and G”.
Turning to `CC(C)[C@H]1CC[C@H](C(=O)N[C@H](Cc2ccccc2)C(=O)O)CC1` [Form G, nateglinide], in data set [2], the “form obtained upon drying / heating” value is “convert to Form B”.
Consider `CC(C)[C@H]1CC[C@H](C(=O)N[C@H](Cc2ccccc2)C(=O)O)CC1` [Form H, nateglinide], for which the “Δ (overweight)” value in data set [4] (Acetone vapors, 3.50 g NTG) was found to be 0.08; in data set [4] (DCM vapors, 3.49 g NTG) it was 0.04; in data set [4] (EtOH vapors, 3.50 g NTG), 0.52; in data set [4] (MeOH vapors, 3.50 g NTG) it was 0.18; in data set [4] (Water vapors, 3.50 g NTG) it was 0.02. The “stability in the presence of solvent vapors” value in data set [4] (vapors of water and acetone) is listed as “stable”. Further, the “thermal stability” value in data set [2] is reported as “thermally stable”.
Take `CC(C)[C@H]1CC[C@H](C(=O)N[C@H](Cc2ccccc2)C(=O)O)CC1` [Form I, nateglinide]: the “crystal form after storage” value in data set [1] is listed as “converts to Form L”; in data set [1] (listed as I), “Form L”.
`CC(C)[C@H]1CC[C@H](C(=O)N[C@H](Cc2ccccc2)C(=O)O)CC1` [Form J, nateglinide]: in data set [1] (room temperature, overnight), the “XRD pattern after storage at RT for overnight” value is “XRD pattern slightly”. Also, the “form obtained upon drying / heating” value in data set [2] is listed as “convert to Form B”.
Regarding `CC(C)[C@H]1CC[C@H](C(=O)N[C@H](Cc2ccccc2)C(=O)O)CC1` [Form L, nateglinide], the “thermal stability” value in data set [2] is “thermally stable”.
For the compound `CC(C)[C@H]1CC[C@H](C(=O)N[C@H](Cc2ccccc2)C(=O)O)CC1` [Form M, nateglinide], in data set [2], the “form obtained upon drying / heating” value is “Form L”.
As for `CC(C)[C@H]1CC[C@H](C(=O)N[C@H](Cc2ccccc2)C(=O)O)CC1` [Form N, nateglinide], the “form obtained upon drying / heating” value in data set [2] was “Form L”.
For `CC(C)[C@H]1CC[C@H](C(=O)N[C@H](Cc2ccccc2)C(=O)O)CC1` [Form O, nateglinide], the “thermal stability” value in data set [2] is listed as “somewhat stable”.
For the compound `CC(C)[C@H]1CC[C@H](C(=O)N[C@H](Cc2ccccc2)C(=O)O)CC1` [Form Q, nateglinide], the “crystal form after storage” value in data set [1] is “converts to Form Y”; in data set [1] (listed as Q) it was “Form Y, which contains”. Further, the “form obtained upon drying / heating” value in data set [2] was “convert to Form B”.
For the compound `CC(C)[C@H]1CC[C@H](C(=O)N[C@H](Cc2ccccc2)C(=O)O)CC1` [Form T, nateglinide], the “crystal form after storage” value in data set [1] is given as “converts to Form E”; in data set [1] (listed as T) it was “Form E”. In addition, the “form obtained upon drying / heating” value in data set [2] is “convert to a mixture of Form B and G”.
As for `CC(C)[C@H]1CC[C@H](C(=O)N[C@H](Cc2ccccc2)C(=O)O)CC1` [Form U, nateglinide], in data set [2], the “thermal stability” value is listed as “thermally stable”, the “form after heating at about 100° C.” value was “does not undergo a transition” and the “form after heating at 120° C.” value is recorded as “Form U”. Also, in data set [2] (listed as form U), the “form after heating at about 100° C.” value was “Form U”.
For `CC(C)[C@H]1CC[C@H](C(=O)N[C@H](Cc2ccccc2)C(=O)O)CC1` [Form V, nateglinide], the “form obtained upon drying / heating” value in data set [2] is on record as “Form H”.
`CC(C)[C@H]1CC[C@H](C(=O)N[C@H](Cc2ccccc2)C(=O)O)CC1` [Form Y, nateglinide]: the “thermal stability” value in data set [2] is on record as “somewhat stable”.
On to `CC(C)[C@H]1CC[C@H](C(=O)N[C@H](Cc2ccccc2)C(=O)O)CC1` [Form Z, nateglinide], for which, in data set [2], the “form obtained upon drying / heating” value is given as “convert to Form B”.
As for `CC(C)[C@H]1CC[C@H](C(=O)N[C@H](Cc2ccccc2)C(=O)O)CC1` [Form Ω, nateglinide], the “form after drying in a vacuum oven” value in data set [2] (50° C., vacuum oven, overnight, XRD) was “mixture of Form omega and Form Z”. Moreover, the “form obtained upon drying / heating” value in data set [2] is given as “convert to Form B”.
On to `CC(C)[C@H]1CC[C@H](C(=O)N[C@H](Cc2ccccc2)C(=O)O)CC1` [Form α, nateglinide], for which, in data set [2], the “thermal stability” value is “somewhat stable” and the “form obtained upon drying / heating” value was “convert to Form B”.
Regarding `CC(C)[C@H]1CC[C@H](C(=O)N[C@H](Cc2ccccc2)C(=O)O)CC1` [Form β, nateglinide], the “form obtained upon drying / heating” value in data set [2] is given as “convert to Form B”.
`CC(C)[C@H]1CC[C@H](C(=O)N[C@H](Cc2ccccc2)C(=O)O)CC1` [Form δ, nateglinide]: in data set [5], the “time for which the crystalline form is stable” value was “at least 3 months”. Besides, in data set [2], the “thermal stability” value was “somewhat stable”, the “form after heating at 120° C.” value is listed as “results in Form B” and the “form obtained upon drying / heating” value is “convert to Form B”. Moreover, in data set [2] (60 mmHg vacuum, 60° C., 6 hours), the “polymorph after drying in a stirred reactor” value is reported as “remained delta form”. The “stability when heated to 60° C. overnight” value in data set [2] (60° C., overnight (at least about 8 hours)) is given as “stable”. Besides, the “form after heating at 120° C.” value in data set [2] (listed as form δ) was “Form B”. Further, in data set [2] (4 hours at 60° C.), the “polymorphic form after drying in a fluidized bed drier” value is listed as “delta”.
Turning to `CC(C)[C@H]1CC[C@H](C(=O)N[C@H](Cc2ccccc2)C(=O)O)CC1` [Form ε, nateglinide], the “form obtained upon drying / heating” value in data set [2] was “Form H”.
The same measure, in the same setting: with `CC(C)[C@H]1CC[C@H](C(=O)N[C@H](Cc2ccccc2)C(=O)O)CC1` [Form θ, nateglinide] the entry was “convert to Form B”.
Consider `CC(C)[C@H]1CC[C@H](C(=O)N[C@H](Cc2ccccc2)C(=O)O)CC1` [Form σ, nateglinide], for which the “thermal stability” value in data set [2] is “thermally stable”.
Take `CC(C)[C@H]1CC[C@H](C(=O)N[C@H](Cc2ccccc2)C(=O)O)CC1` [acetonitrile solvate of Form Epsilon, nateglinide]: the “form obtained upon drying / heating” value in data set [2] was “Form B”.
For the compound `CC(C)[C@H]1CC[C@H](C(=O)N[C@H](Cc2ccccc2)C(=O)O)CC1` [nateglinide, (−)—N-(trans-4-isopropylcyclohexanecarbonyl)-D-Phenylalanine], the solubility entry is reported as “sparingly soluble” in data set [6] (in acetonitrile); “freely soluble” in data set [6] (in chloroform); “freely soluble” in data set [6] (in ethanol); “soluble” in data set [6] (in ether); “freely soluble” in data set [6] (in methanol); “sparingly soluble” in data set [6] (in octanol). The solubility entry in data set [6] (in water) is listed as “practically insoluble”.
Regarding `CC(C)[C@H]1CC[C@H](C(=O)N[C@H](Cc2ccccc2)C(=O)O)CC1` [nitromethane solvates of Form Epsilon, nateglinide], in data set [2], the “form obtained upon drying / heating” value is “Forms H or P”.
